ChEMBL document CHEMBL5338781, “Fragment-Based Approaches to Identify RNA Binders” (J Med Chem, 2023)
Values after ≈ are worked out from the molar mass of the structure shown.

Assays:
RNA = assay: Binding affinity to RNA (unknown origin) by fluorescence based analysis; type: nucleic-acid assay
[1] = Binding affinity to Escherichia coli ThiM TPP riboswitch
[2] = Binding affinity to bacteria RNA by HTS method
[3] = Binding affinity to HIV-1 RNA by SPR analysis; parameters: species or system Human immunodeficiency virus 1
[4] = Binding affinity to pri-miR-96 (unknown origin)
[5] = Inhibition of pri-miR-96 biogenesis in human MDA-MB-231 cells; type: cell-based
[6] = Binding affinity to influenza A virus RNA by one-dimensional NMR spectroscopy method
Influenza A virus = assay: Antiviral activity against Influenza A virus assessed as inhibition of virus-induced cytopathic effect; type: functional, organism-based
Influenza B virus = assay: Antiviral activity against Influenza B virus assessed as inhibition of virus-induced cytopathic effect; type: functional, organism-based
Bacterial 70S ribosome = assay: Inhibition of Mycobacterium smegmatis ribosomes assessed as inhibition of translation activity; type: subcellular, Mycolicibacterium smegmatis
[7] = Binding affinity to HIV1 TAR RNA assessed as inhibition of Tat-mediated transactivation; type: functional, Human immunodeficiency virus 1
[8] = target: T1, Sulfhydryl oxidase 1 (Homo sapiens) (UniProt O00391); assay: Inhibition of QSOX1 in human MDA-MB-231 cells at 20 uM relative to control; type: cell-based
T1 sequence (whole entry): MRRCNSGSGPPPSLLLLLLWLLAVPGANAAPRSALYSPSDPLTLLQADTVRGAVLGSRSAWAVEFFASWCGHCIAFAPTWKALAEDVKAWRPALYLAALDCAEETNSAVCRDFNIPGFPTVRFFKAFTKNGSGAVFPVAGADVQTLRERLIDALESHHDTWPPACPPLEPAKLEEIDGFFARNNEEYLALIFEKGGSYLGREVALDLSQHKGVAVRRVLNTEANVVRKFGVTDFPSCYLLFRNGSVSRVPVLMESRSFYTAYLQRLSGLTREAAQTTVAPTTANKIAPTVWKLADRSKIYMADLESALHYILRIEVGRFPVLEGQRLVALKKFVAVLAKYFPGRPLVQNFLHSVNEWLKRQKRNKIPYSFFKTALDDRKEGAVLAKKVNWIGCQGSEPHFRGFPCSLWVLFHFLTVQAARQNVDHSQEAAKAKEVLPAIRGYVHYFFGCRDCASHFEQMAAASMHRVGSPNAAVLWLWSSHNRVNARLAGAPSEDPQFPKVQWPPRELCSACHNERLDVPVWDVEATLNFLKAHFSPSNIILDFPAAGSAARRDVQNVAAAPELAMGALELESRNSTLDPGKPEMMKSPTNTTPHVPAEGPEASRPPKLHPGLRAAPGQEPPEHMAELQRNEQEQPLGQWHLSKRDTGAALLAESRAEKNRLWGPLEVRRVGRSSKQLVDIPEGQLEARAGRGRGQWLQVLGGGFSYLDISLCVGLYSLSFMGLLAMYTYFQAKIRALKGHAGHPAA

Escherichia coli [9] = assay: Binding affinity to Escherichia coli ThiM TPP riboswitch assessed as inhibition of conformational switching
microRNA 21 [10] = assay: Binding affinity to pre-miR-21 (unknown origin); type: nucleic-acid assay
[11] = Binding affinity to pre-miR-372 (unknown origin)
[12] = Inhibition of pre-miR-372 biogenesis in human AGS cells; type: cell-based
microRNA 21 [13] = assay: Inhibition of pre-miR-21 biogenesis in human MDA-MB-231 cells; type: cell-based
microRNA 21 [14] = assay: Inhibition of pre-miR-21 biogenesis in human Triple-negative breast cancer cell; type: cell-based
Staphylococcus aureus = assay: Antibacterial activity against Staphylococcus aureus assessed as bacterial growth inhibition; type: functional
Escherichia coli [15] = assay: Antibacterial activity against Escherichia coli assessed as bacterial growth inhibition; type: functional
Sulfhydryl oxidase 1 = target: T2, Sulfhydryl oxidase 1 (Homo sapiens, UniProt O00391); assay: Binding affinity to QSOX1 in human MDA-MB-231 cells; type: cell-based
T2 sequence (O00391 whole entry): T1 sequence (whole entry)

## Cc1nc(N)nc(N)n1
RNA
  Kd: 110 µM

## Nc1ccc2nccnc2c1
[1]
  Kd: 22 µM

## NCC[C@@H](NC(=O)c1ccc(-c2cccc(NC(=O)c3ccc4nc(O)c(O)nc4c3)c2)o1)C(=O)N1CCNCC1
[2]
  Kd: 6.5 µM

## COc1ccc2nc3cc(F)ccc3c(Nc3ccc(C(=O)Nc4ccncc4)cc3)c2c1
[3]
  Kd: 1 µM

## c1cc(N2CCNCC2)ccn1
[1]
  Kd: 620 µM

## CCCN(CC(=O)N(CCC)CC(=O)N(CC(N)=O)Cc1cn(CCCNC(=O)CCCOc2c(C(C)(C)C)cc(-c3nc4cc(N5CCN(C)CC5)ccc4[nH]3)cc2C(C)(C)C)nn1)C(=O)CCCOc1cccc(-c2nc3ccc(-c4nc5ccc(N6CCN(C)CC6)cc5[nH]4)cc3[nH]2)c1
[4]
  Kd: 0.085 µM
[5]
  IC50: ~0.05 µM

## COc1cc2nc(N3CCNCC3)nc(N)c2cc1OC [AMINODIMETHOXYQUINAZOLINYLPIPERAZINE]
[6]
  Kd: 50 µM
Influenza A virus
  EC50: 71 µM
Influenza B virus
  EC50: 71 µM

## Nc1ccnc(N)n1 [DIAMINOPYRIMIDINE]
RNA
  Kd: 80 µM

## CCN1CCN(Cc2csc(-c3ccccc3)n2)CC1
Bacterial 70S ribosome
  IC50: 2.8 µM

## Cc1ncc(CN=[N+]=[N-])cn1
[1]
  Kd: 49 µM

## OCc1ccc2nsnc2c1
[1]
  Kd: 56 µM

## Nc1ccc2nc(N)nc(N)c2c1 [QUINAZOLINE-2,4,6-TRIAMINE]
[7]
  IC50: 40 µM

## Nc1ccc2ccnc(N)c2c1
[7]
  IC50: 150 µM

## C#CCCC1(CCC(=O)N(C)[C@H]2CC[C@@H](c3ccc(Cl)c(Cl)c3)c3ccccc32)N=N1
[8]
  inhibition: 15%

## NC1=Nc2cccc3cccc(c23)N1
[7]
  IC50: 50 µM

## CN1CCN(c2ccc3nc(-c4ccc5[nH]c(-c6cccc(OCCCC(=O)NCCN=[N+]=[N-])c6)nc5c4)[nH]c3c2)CC1
[4]
  Kd: 1.3 µM
[5]
  IC50: ~0.02 µM

## c1cc(N2CCNCC2)c(NCc2ccc3nccnc3c2)cn1
[1]
  Kd: 0.068 µM
Escherichia coli [9]
  K: 68 µM

## CNCc1cc2cccnc2s1
[1]
  Kd: 60 µM

## CCc1nc2ccccc2cc1C(=O)N[C@@H](CSSC[C@H](NC(=O)c1cc2ccccc2nc1CC)C(=O)N1CCC[C@H]1C(=O)N[C@@H](Cc1ccccc1)C(=O)NCCCCCC(N)=O)C(=O)N1CCC[C@H]1C(=O)N[C@@H](Cc1ccccc1)C(=O)NCCCCCC(N)=O
[3]
  Kd: 4.1 µM

## COc1ccc2nc3cc(F)ccc3c(N)c2c1
[3]
  Kd: 59 µM

## Nc1csc(Br)n1
RNA
  Kd: 650 µM

## Cc1nc(CN2CCN(Cc3csc(-c4ccccc4)n3)CC2)cs1
Bacterial 70S ribosome
  IC50: 9.1 µM

## CN1CCN(c2ccc(-c3ccc4nc(-c5ccc(OCCCC(=O)CCCN=[N+]=[N-])cc5)[nH]c4c3)cc2)CC1
microRNA 21 [10]
  Kd: 18 µM

## O=c1[nH]cccc1-c1nc(-c2cccc(Cl)c2)no1
[11]
  Kd: 0.3 µM
[12]
  IC50: ~1 µM

## CN1CCN(c2ccc3nc(-c4cc(C(C)(C)C)c(OCCCC(=O)NCCCN=[N+]=[N-])c(C(C)(C)C)c4)[nH]c3c2)CC1
[4]
  Kd: 1.5 µM

## CN1CCN(c2ccc(-c3ccc4nc(-c5ccc(OCCCC(=O)N6CCN(c7nncc8sccc78)CC6)cc5)[nH]c4c3)cc2)CC1
microRNA 21 [10]
  Kd: 0.352 µM
microRNA 21 [13]
  IC50: ~1 µM
microRNA 21 [14]
  IC50: ~1 µM

## CCc1nc2cc3ccccc3cc2cc1C(=O)N(C)[C@@H](CCn1cc(C[C@@H](C(=O)N2CCC[C@H]2C(=O)N(C)[C@@H](Cc2ccccc2)C(=O)NCCCN)N(C)C(=O)c2cc3cc4ccccc4cc3nc2CC)nn1)C(=O)N1CCC[C@H]1C(=O)N(C)[C@@H](Cc1ccccc1)C(=O)NCCCN
[3]
  Kd: 0.016 µM

## Nc1nc2[nH]nc(N)n2n1
RNA
  Kd: 370 µM

## CN(C)CCCOc1ccc(C(NC(=O)c2ccc(-c3cccc(NC(=O)c4ccc(-c5ccccc5)cc4)c3)o2)C(=O)N2CCNCC2)cc1 (centres undefined)
Staphylococcus aureus
  MIC: 3 µM (≈ 2.06 µg/mL)
Escherichia coli [15]
  MIC: 6 µM (≈ 4.11 µg/mL)

## CCOC(=O)C1=C(Nc2ccccc2)S/C(=C\c2ccc(OCCOCCOCCOCCNC(=O)CCC(=O)N(C)[C@H]3CC[C@@H](c4ccc(Cl)c(Cl)c4)c4ccccc43)c(O)c2)C1=O
Sulfhydryl oxidase 1
  Kd: 16 µM
